Columns and labels:
Assay type in all cases: in vivo
[1] = tested on: giant foxtail (Setaria faberii); assay: Test C preemergence; conditions: Setaria faberi, pre-emergence, 336 h, scale 0 to 100, read-out: Plant response rating, Foxtail, Giant
Outline: (§1)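 Greenhouse test, preemergence on seeded soil or postemergence on 1- to 4-leaf plants. Response is a visual 0-100 rating versus controls, taken 13-15 days after treatment.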

[2] = tested on: large (Lg) crabgrass (Digitaria sanguinalis); assay: Test C preemergence; conditions: Digitaria sanguinalis, pre-emergence, 336 h, scale 0 to 100, read-out: Plant response rating, Crabgrass, Large
Outline: as §1

[3] = tested on: oilseed rape (Brassica napus); assay: Test C preemergence; conditions: Brassica napus, pre-emergence, scale 0 to 100, read-out: Plant response rating, Oilseed Rape
Outline: as §1

[4] = tested on: winter wheat (Triticum aestivum); assay: Test C preemergence; conditions: Triticum aestivum, pre-emergence, 336 h, scale 0 to 100, read-out: Plant response rating, Wheat
Outline: as §1

[5] = tested on: Italian ryegrass (Lolium multiflorum); assay: Test C postemergence; conditions: Lolium multiflorum, post-emergence, 336 h, Postemergence, scale 0 to 100, read-out: Plant response rating, Ryegrass, Italian
Outline: as §1

[6] = tested on: barnyardgrass (Echinochloa crus-galli); assay: Test C postemergence; conditions: Echinochloa crus-galli, post-emergence, Postemergence, scale 0 to 100, read-out: Plant response rating, Barnyardgrass
Outline: as §1

[7] = tested on: blackgrass (Alopecurus myosuroides); assay: Test C postemergence; conditions: Alopecurus myosuroides, post-emergence, 336 h, Postemergence, scale 0 to 100, read-out: Plant response rating, Blackgrass
Outline: as §1

[8] = tested on: chickweed (common chickweed, Stellaria media); assay: Test C postemergence; conditions: Stellaria media, post-emergence, Postemergence, scale 0 to 100, read-out: Plant response rating, Chickweed
Outline: as §1

corn (Zea mays) = assay: Test C postemergence; conditions: Zea mays, post-emergence, 336 h, Postemergence, scale 0 to 100
Outline: as §1

[9] = tested on: galium (catchweed bedstraw, Galium aparine); assay: Test C postemergence; conditions: Galium, post-emergence, 336 h, Postemergence, scale 0 to 100, read-out: Plant response rating, Galium
Outline: as §1

[10] = tested on: giant foxtail (Setaria faberii); assay: Test C postemergence; conditions: Setaria faberi, post-emergence, 336 h, Postemergence, scale 0 to 100, read-out: Plant response rating, Foxtail, Giant
Outline: as §1

[11] = tested on: johnsongrass (Sorghum halepense); assay: Test C postemergence; conditions: Sorghum halepense, post-emergence, 336 h, Postemergence, scale 0 to 100, read-out: Plant response rating, Johnsongrass
Outline: as §1

[12] = tested on: lambsquarters (Chenopodium album); assay: Test C postemergence; conditions: Chenopodium album, post-emergence, 336 h, Postemergence, scale 0 to 100, read-out: Plant response rating, Lambsquarters
Outline: as §1

[13] = tested on: large (Lg) crabgrass (Digitaria sanguinalis); assay: Test C postemergence; conditions: Digitaria sanguinalis, post-emergence, 336 h, Postemergence, scale 0 to 100, read-out: Plant response rating, Crabgrass, Large
Outline: as §1

[14] = tested on: morningglory (Ipomoea coccinea); assay: Test C postemergence; conditions: Ipomoea, post-emergence, 336 h, Postemergence, scale 0 to 100, read-out: Plant response rating, Morningglory
Outline: as §1

[15] = tested on: oilseed rape (Brassica napus); assay: Test C postemergence; conditions: Brassica napus, post-emergence, Postemergence, scale 0 to 100, read-out: Plant response rating, Oilseed Rape
Outline: as §1

[16] = tested on: pigweed (Amaranthus retroflexus); assay: Test C postemergence; conditions: Amaranthus retroflexus, post-emergence, 336 h, Postemergence, scale 0 to 100, read-out: Plant response rating, Pigweed
Outline: as §1

[17] = tested on: ragweed (common ragweed, Ambrosia elatior); assay: Test C postemergence; conditions: Ambrosia artemisiifolia, post-emergence, 336 h, Postemergence, scale 0 to 100, read-out: Plant response rating, Ragweed
Outline: as §1

soybean (Glycine max) = assay: Test C postemergence; conditions: Glycine max, post-emergence, Postemergence, scale 0 to 100, read-out: Plant response rating, Soybean
Outline: as §1

[18] = tested on: velvetleaf (Abutilon theophrasti); assay: Test C postemergence; conditions: Abutilon theophrasti, post-emergence, Postemergence, scale 0 to 100, read-out: Plant response rating, Velvetleaf
Outline: as §1

[19] = tested on: winter wheat (Triticum aestivum); assay: Test C postemergence; conditions: Triticum aestivum, post-emergence, 336 h, Postemergence, scale 0 to 100, read-out: Plant response rating, Wheat
Outline: as §1

[20] = tested on: yellow nutsedge (Cyperus esculentus); assay: Test C postemergence; conditions: Cyperus, post-emergence, 336 h, Postemergence, scale 0 to 100, read-out: Plant response rating, Nutsedge, Yellow
Outline: as §1

## N#Cc1cccc(Oc2ncc(Cl)cn2)c1Oc1ncc(C(F)(F)F)cn1 [Compound 38, 3-[(5-chloro-2-pyrimidinyl)oxy]-2-[[5-(trifluoromethyl)-2-pyrimidinyl]oxy]-benzonitrile]
[1]; 31 g ai/ha, preemergence
  pest or weed control at 31 g/ha: 95%
[1]; 62 g ai/ha, preemergence
  pest or weed control at 62 g/ha: 100%
[1]; 125 g ai/ha, preemergence
  pest or weed control at 125 g/ha: 100%
[1]; Preemergence, 16 g ai/ha
  pest or weed control at 16 g/ha: 85%
[2]; 31 g ai/ha, preemergence
  pest or weed control at 31 g/ha: 100%
[2]; 62 g ai/ha, preemergence
  pest or weed control at 62 g/ha: 100%
[2]; 125 g ai/ha, preemergence
  pest or weed control at 125 g/ha: 100%
[2]; Preemergence, 16 g ai/ha
  pest or weed control at 16 g/ha: 100%
[3]; 31 g ai/ha, preemergence
  plant injury at 31 g/ha: 100%
[3]; 62 g ai/ha, preemergence
  plant injury at 62 g/ha: 100%
[3]; 125 g ai/ha, preemergence
  plant injury at 125 g/ha: 100%
[3]; Preemergence, 16 g ai/ha
  plant injury at 16 g/ha: 90%
[4]; 31 g ai/ha, preemergence
  plant injury at 31 g/ha: 0%
[4]; 62 g ai/ha, preemergence
  plant injury at 62 g/ha: 15%
[4]; 125 g ai/ha, preemergence
  plant injury at 125 g/ha: 35%
[4]; Preemergence, 16 g ai/ha
  plant injury at 16 g/ha: 0%
[5]; 31 g ai/ha
  pest or weed control at 31 g/ha: 5%
[5]; 62 g ai/ha
  pest or weed control at 62 g/ha: 5%
[5]; 125 g ai/ha
  pest or weed control at 125 g/ha: 5%
[6]; 16 g ai/ha
  pest or weed control at 16 g/ha: 10%
[6]; 31 g ai/ha
  pest or weed control at 31 g/ha: 20%
[6]; 62 g ai/ha
  pest or weed control at 62 g/ha: 20%
[6]; 125 g ai/ha
  pest or weed control at 125 g/ha: 35%
[7]; 16 g ai/ha
  pest or weed control at 16 g/ha: 0%
[7]; 31 g ai/ha
  pest or weed control at 31 g/ha: 0%
[7]; 62 g ai/ha
  pest or weed control at 62 g/ha: 10%
[7]; 125 g ai/ha
  pest or weed control at 125 g/ha: 15%
[8]; 16 g ai/ha
  pest or weed control at 16 g/ha: 50%
[8]; 31 g ai/ha
  pest or weed control at 31 g/ha: 50%
[8]; 62 g ai/ha
  pest or weed control at 62 g/ha: 70%
[8]; 125 g ai/ha
  pest or weed control at 125 g/ha: 85%
Corn (Zea mays); 16 g ai/ha
  Corn plant response rating (crop injury, 0 = no effect, 100 = complete kill) at 16 g/ha: 10%
Corn (Zea mays); 31 g ai/ha
  Corn plant response rating (crop injury, 0 = no effect, 100 = complete kill) at 31 g/ha: 20%
Corn (Zea mays); 62 g ai/ha
  Corn plant response rating (crop injury, 0 = no effect, 100 = complete kill) at 62 g/ha: 15%
Corn (Zea mays); 125 g ai/ha
  Corn plant response rating (crop injury, 0 = no effect, 100 = complete kill) at 125 g/ha: 15%
[9]; 16 g ai/ha
  pest or weed control at 16 g/ha: 70%
[9]; 31 g ai/ha
  pest or weed control at 31 g/ha: 85%
[9]; 62 g ai/ha
  pest or weed control at 62 g/ha: 90%
[9]; 125 g ai/ha
  pest or weed control at 125 g/ha: 90%
[10]; 16 g ai/ha
  pest or weed control at 16 g/ha: 5%
[10]; 31 g ai/ha
  pest or weed control at 31 g/ha: 10%
[10]; 62 g ai/ha
  pest or weed control at 62 g/ha: 10%
[10]; 125 g ai/ha
  pest or weed control at 125 g/ha: 25%
[11]; 16 g ai/ha
  pest or weed control at 16 g/ha: 5%
[11]; 31 g ai/ha
  pest or weed control at 31 g/ha: 5%
[11]; 62 g ai/ha
  pest or weed control at 62 g/ha: 5%
[11]; 125 g ai/ha
  pest or weed control at 125 g/ha: 10%
[12]; 16 g ai/ha
  pest or weed control at 16 g/ha: 65%
[12]; 31 g ai/ha
  pest or weed control at 31 g/ha: 70%
[12]; 62 g ai/ha
  pest or weed control at 62 g/ha: 80%
[12]; 125 g ai/ha
  pest or weed control at 125 g/ha: 90%
[13]; 16 g ai/ha
  pest or weed control at 16 g/ha: 5%
[13]; 31 g ai/ha
  pest or weed control at 31 g/ha: 10%
[13]; 62 g ai/ha
  pest or weed control at 62 g/ha: 10%
[13]; 125 g ai/ha
  pest or weed control at 125 g/ha: 30%
[14]; 31 g ai/ha
  pest or weed control at 31 g/ha: 85%
[14]; 62 g ai/ha
  pest or weed control at 62 g/ha: 85%
[14]; 125 g ai/ha
  pest or weed control at 125 g/ha: 90%
[15]; 31 g ai/ha
  plant injury at 31 g/ha: 20%
[15]; 62 g ai/ha
  plant injury at 62 g/ha: 25%
[15]; 125 g ai/ha
  plant injury at 125 g/ha: 5%
[16]; 31 g ai/ha
  pest or weed control at 31 g/ha: 85%
[16]; 62 g ai/ha
  pest or weed control at 62 g/ha: 90%
[16]; 125 g ai/ha
  pest or weed control at 125 g/ha: 90%
[17]; 31 g ai/ha
  pest or weed control at 31 g/ha: 55%
[17]; 62 g ai/ha
  pest or weed control at 62 g/ha: 70%
[17]; 125 g ai/ha
  pest or weed control at 125 g/ha: 50%
Soybean (Glycine max); 31 g ai/ha
  plant injury at 31 g/ha: 85%
Soybean (Glycine max); 62 g ai/ha
  plant injury at 62 g/ha: 50%
Soybean (Glycine max); 125 g ai/ha
  plant injury at 125 g/ha: 80%
[18]; 31 g ai/ha
  pest or weed control at 31 g/ha: 65%
[18]; 62 g ai/ha
  pest or weed control at 62 g/ha: 55%
[18]; 125 g ai/ha
  pest or weed control at 125 g/ha: 60%
[19]; 31 g ai/ha
  plant injury at 31 g/ha: 0%
[19]; 62 g ai/ha
  plant injury at 62 g/ha: 0%
[19]; 125 g ai/ha
  plant injury at 125 g/ha: 0%
[20]; 31 g ai/ha
  pest or weed control at 31 g/ha: 0%
[20]; 62 g ai/ha
  pest or weed control at 62 g/ha: 5%
[20]; 125 g ai/ha
  pest or weed control at 125 g/ha: 10%
